Laboratory results reported in patent US5792444A, “Labeled chemotactic peptides to image focal sites of infection or inflammation” (The General Hospital Corporation, priority 1993, dated 1998).
Like-named read-outs stand apart in the source and are kept apart here. *1 amine or outer side, *2 acyl side, *3 side chain or, on linkers, in order; H or OH if unused. Where a SMILES comes first, the peptide text is derived from it. Side-chain parts run from the residue outwards. [ ]: non-standard residue; d: D form. The star is where a group is joined. Isobutyloxycarbonyl = CC(C)COC(=O)*; Met(O) = CS(=O)CC[C@H](N)C(=O)O; Cha = N[C@@H](CC1CCCCC1)C(=O)O; HYNIC = NNc1ccc(C(=O)*)cn1; Nle = CCCC[C@H](N)C(=O)O; CO = O=C([*:1])[*:2]; NHPh = c1ccc(N*)cc1; NHiPr = CC(C)N*; For = O=C*

Key:
[1] = test system: neutrophils / human umbilical vein endothelial cells; test: cells; assay type: cell-based
Experimental: (§1) The unconjugated peptide iBoc-MLFK was evaluated in a neutrophil-endothelial cell adhesion assay. In this assay, neutrophils (5×10^5) labeled with 5-carboxyfluorescein diacetate were added into wells of a 48 well dish containing confluent human umbilical vein endothelial cells. The iBoc-MLFK peptide was added at a concentration of 10 μM 10 min prior to stimulation of neutrophils with 30 nM ForMLF. Percent adhesion was determined by washing off unattached neutrophils after an incubation period of 25 minutes. This peptide inhibited adhesion by 66% at this concentration. Subsequently, concentrations between 0.1-3.0 μM were examined. […] Inhibition of adhesion would reduce the infiltration of leukocytes, such as neutrophils, to a diseased site, thereby limiting the tissue damage associated with inflammation.
(§2) The procedure of Example 5 was repeated for additional CP's within the scope of the present invention. The results are shown in Table I. In the table, MPO is myeloperoxidase assay, a "-" sign means there was no effect at 30 μM, a "+" sign means there was a positive effect at 30 μM, and "N.T." means "Not

[2] = test system: neutrophils / human umbilical vein endothelial cells; test: Adhesion agonist (neutrophil-endothelial cell adhesion assay); assay type: cell-based; settings: read-out: Adhesion Agonist EC50
Experimental: as §1, §2

[3] = target: T1, neutrophils (Homo sapiens, UniProt P21462); test: Binding (Table I, Cell Biology Data); settings: for Binding EC50: class symbol
T1 sequence (P21462 1-350): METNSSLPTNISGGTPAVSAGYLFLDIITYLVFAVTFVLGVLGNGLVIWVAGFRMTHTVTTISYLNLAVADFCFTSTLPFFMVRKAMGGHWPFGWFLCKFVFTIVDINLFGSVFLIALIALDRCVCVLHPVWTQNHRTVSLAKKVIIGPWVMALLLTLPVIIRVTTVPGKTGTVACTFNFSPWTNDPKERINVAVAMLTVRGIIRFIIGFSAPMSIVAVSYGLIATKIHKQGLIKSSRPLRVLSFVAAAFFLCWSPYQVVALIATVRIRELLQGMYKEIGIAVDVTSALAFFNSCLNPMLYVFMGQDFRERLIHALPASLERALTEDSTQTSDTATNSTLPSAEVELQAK
From the text: Three non-DTPA derivatized peptides were included in the assay for comparison.

[4] = test system: E. coli infection; design: species or system New Zealand white rabbits; settings: rabbit, in vivo
Experimental: Male New Zealand white rabbits weighing 2.2-3.0 kg were used in all studies. E. coli from a single clinical isolate were grown overnight on trypticase soy agar plates and individual colonies were diluted with sterile normal saline to produce a turbid suspension containing approximately 1×10^11 organisms/0.5 mL (determined with a spectrophotometer). A 0.5 mL inoculum of the bacterial suspension was injected deep in the left thigh muscle of the rabbits.
Twenty four hours after inoculation, rabbits with gross swelling in the infected thigh were injected with the radiopharmaceuticals through a lateral ear vein. Six animals were injected with a mixture of 1 mCi ^99m Tc-HP (>5,000 mCi/μMole) and 0.05 mCi of ^111 In labeled white blood cells.
At 3, 6, and 18 hours after injection of the radiolabeled reagents, the animals were anesthetized with ketamine/xylazine (15.0 and 1.5 mg/kg) and anterior whole body scintigrams were acquired using a large field of view gamma camera equipped with a parallel hole medium energy collimator interfaced to a dedicated computer system (Technicare Gemini 700, Technicare 560, Solon, Ohio). ^111 In and ^99m Tc images were acquired simultaneously in dual photon mode with 15% windows centered on photopeaks at 140 KeV for ^99m Tc and 247 KeV for ^111 In. At 3 and 6 hours after injection, two sets of images were acquired for a preset time of 5 minutes/view. At 18 hours after injection, the imaging time was extended to 10 minutes per view. Regions of interest were drawn over the area of infection and the contralateral normal muscle (background). The results were expressed as target-to-background ratios (infected thigh/contralateral thigh).
After acquiring the final images, the animals were sacrificed with an overdose of sodium pentobarbital and biodistribution was determined. Samples of blood, heart, lung, liver, spleen, kidney, adrenal, stomach, GI tract, testes, bone, bone marrow, normal muscle, infected muscle, and pus were weighed and radioactivity was measured with a well type gamma counter (LKB model #1282, Wallac Oy, Finland). To correct for radioactive decay and permit calculation of the concentration of radioactivity in each organ as a fraction of the administered dose, aliquots of the injected doses were counted simultaneously. The results were expressed as percent injected dose per gram (%I.D./g), infected to normal muscle ratios, and pus to normal muscle ratios.
To determine the nature of the radioactivity in the circulation and at the site of infection, the blood and pus samples were fractionated by gradient centrifugation on Lymphoprep. The plasma was further fractionated on a column of Sephadex G-100 (1.0×25 cm) eluted with PBS, pH 7.4. […]

[5] = target: T2, chemoattractant receptor on human PMN's (Homo sapiens, UniProt P21462); test: For-MLF receptor binding assay (For-ML[3H]F displacement); settings: 15 nM For-ML[3H]F, 45 min, 24° C.
T2 construct: endogenous in cells; host or cells: isolated human PMN's (neutrophils) from healthy volunteers, intact cells
T2 sequence (P21462 1-350): T1 sequence (P21462 1-350)
Experimental: Following incubation, the cells were filtered onto glass fiber discs (Whatman GF/C; Whatman, Inc., Clifton, N.J.) which were then washed with 20 mL of ice cold incubation buffer. The filters were placed in scintillation vials with 10 mL of Safety-Solve (Research Products International Corp., Mt. Prospect, Ill.) and radioactivity was measured by liquid scintillation spectroscopy. Specific binding is defined as total binding minus nonspecific binding. Nonspecific binding is the amount of residual bound radioactivity in the presence of 10 μM unlabeled For-MLF.
The chemical purity of the final product was evaluated by TLC, HPLC, UV spectroscopy, mass spectroscopy, and amino acid analysis. Determinations of the EC50 's for binding to the chemoattractant receptor on human PMN's and superoxide generation were performed as described in Pike, M. C., and Snyderman, R., Methods Enzymol. 162:236-245 (1988); Pike, M. C., et al., Blood 67:909-913 (1986); and Fischman, A. J., et al., J. Nucl. Med. 32:483-491 (1991).

[6] = target: T1, neutrophils; test: Free radicals agonist (neutrophil free radical chemiluminescence); assay type: cell-based; settings: class symbol
[7] = target: T1, neutrophils; test: Free radicals antagonist (inhibition of ForMLF stimulated free radical chemiluminescence); assay type: cell-based
[8] = read-out: Adhesion Antagonist IC50

Compound: CC(C)C[C@H](NC(=O)OCC1c2ccccc2-c2ccccc21)C(=O)O [Example 11, FMOC-Leucine]
- IC50 ([1]; Homo sapiens, read-out: Adhesion Antagonist IC50): 20 µM

Compound: CSCC[C@H](NC(=O)c1ccc[nH]1)C(=O)N[C@@H](CC(C)C)C(=O)N[C@@H](Cc1ccccc1)C(=O)O [Example 25, Pyrrole-M--L--F]
- IC50 [1, 8]: 6.2 µM

Compound: NNc1ccc(C(=O)O)cn1 [Example 26, Hynic]
- EC50 ([2]; Homo sapiens): > 30 µM

Compound: CSCC[C@H](NC(=O)NC(C)C)C(=O)N[C@@H](CC(C)C)C(=O)N[C@@H](Cc1ccccc1)C(=O)N[C@@H](CCCCNC(=O)[C@H](CC(=O)O)NC(=O)c1ccc(NN)nc1)C(=O)O [Example 29, i-proplyurea-MLF--Lys--Asp--SHNH] ({NHiPr-CO}-MLFK([Asp-HYNIC])-OH; C-terminus assumed)
- IC50 [1, 8]: > 30 µM
- EC50 [2]: 0.73 µM

Compound: CSCC[C@H](NC(=O)NC(C)C)C(=O)N[C@@H](CC(C)C)C(=O)N[C@@H](Cc1ccccc1)C(=O)NCCCNC(=O)c1ccc(NN)nc1 [Example 30, N-i-propylurea-MLF-propanediamine-SHNH]
- IC50 [1, 8]: > 30 µM
- EC50 ([2]; class symbol): > 30 µM

Compound: CSCC[C@H](NC(=O)NC(C)C)C(=O)N[C@@H](CC(C)C)C(=O)N[C@@H](Cc1ccccc1)C(=O)NCCCNC(=O)[C@H](CC(=O)O)NC(=O)c1ccc(NN)nc1 [Example 31, i-propylurea-MLF-n-propyldiamine-Asp--SHNH]
- IC50 [1, 8]: > 30 µM
- EC50 [2]: 1.1 µM

Compound: CSCC[C@H](NC(=O)Nc1ccccc1)C(=O)N[C@@H](CC(C)C)C(=O)N[C@@H](CC1CCCCC1)C(=O)O [Example 34] ({NHPh-CO}-Met-Leu-[Cha]-OH)
- EC50 ([2]; class symbol): < 30 µM

Compound: CSCC[C@H](NC(=O)OCC(C)C)C(=O)N[C@@H](CC(C)C)C(=O)N[C@@H](Cc1ccccc1)C(=O)N[C@@H](CCCCN)C(N)=O [Example 41, iBoc--MLFK] (Isobutyloxycarbonyl-MLFK-NH2)
- IC50 [1]: ~14 µM

Compound: CCCC[C@H](NC(=O)OCC(C)C)C(=O)N[C@@H](CC(C)C)C(=O)N[C@@H](Cc1ccccc1)C(=O)N[C@@H](CCCCN)C(N)=O [Example 49, iBoc--Nle--LFK] (Isobutyloxycarbonyl-[Nle]LFK-NH2)
- Binding EC50 [3]: ? --

Compound: CC(C)COC(=O)N[C@@H](CC[S+](C)[O-])C(=O)N[C@@H](CC(C)C)C(=O)N[C@@H](Cc1ccccc1)C(=O)N[C@@H](CCCCN)C(N)=O (stereo partly shown) [Example 50, iBoc--M(O)--LFK] (Isobutyloxycarbonyl-[Met(O)]LFK-NH2)
- Binding EC50 [3]: ? --

Compound: CSCC[C@H](NC=O)C(=O)N[C@@H](CC(C)C)C(=O)N[C@@H](Cc1ccccc1)C(=O)O [Example 59, N-formyl-methionyl-leucyl-phenylalanine, reference compound]
- EC50 [2]: 0.007 µM

Compound: CCCCNC(=O)N[C@@H](CCSC)C(=O)N[C@@H](CC(C)C)C(=O)N[C@@H](Cc1ccccc1)C(=O)O [Example 65, N-butylurea-MLF]
- EC50 ([2]; class symbol): < 30 µM

Compound: CCCCC(=O)N[C@@H](CCSC)C(=O)N[C@@H](CC(C)C)C(=O)N[C@@H](Cc1ccccc1)C(=O)O [Example 79, n-butyl-amidyl-MLF]
- IC50 [1, 8]: 9.6 µM
- EC50 ([2]; class symbol): > 30 µM

Compound: CSCC[C@H](NC(N)=O)C(=O)N[C@@H](CC(C)C)C(=O)N[C@@H](Cc1ccccc1)C(=O)O [Example 98, N-hydrourea-MLF]
- EC50 [2]: 0.62 µM

Compound: CSCC[C@H](NC=O)C(=O)N[C@@H](CC(C)C)C(=O)N[C@@H](Cc1ccccc1)C(=O)N[C@@H](CCCCNC(=O)c1ccc(NN)nc1)C(=O)O [Example 99mTc-HP, Formyl-Methionyl-Leucyl-Phenylalanyl-Lysyl-hydrazininicotinamide, metal not drawn] (For-MLFK(HYNIC)-OH)
- binding to red blood cells [4]: < 2%
- circulating radioactivity associated with leukocytes [4]: ~ 25%
- plasma radioactivity not bound to WBC's eluting with apparent molecular weight of 150,000 (IgG fraction) [4]: > 95%
- radioactivity of pus associated with WBC's [4]: approximately 90%

Compound: CCCC[C@H](NC=O)C(=O)N[C@@H](CC(C)C)C(=O)N[C@@H](Cc1ccccc1)C(=O)O [For-NleLF, N-formyl-norleucyl-leucyl-phenylalanine] (For-[Nle]-Leu-Phe-OH)
- EC50 [5]: 0.3 µM

Compound: Isopropylurea-FLFLF--Lys--Lys--SHNH [Example 18]
- EC50 [6]: > 30 µM
- IC50 [7]: 29.5 µM
- EC50 [3]: 15.7 µM

Compound: Leu--Ala--SHNH--Boc [Example 8]
- EC50 [6]: > 30 µM
- EC50 [3]: > 100 µM

Compound: N(N-isopropylurea-FLFLF-Propanediamine-SPNH [Example 94]
- EC50 [6]: > 30 µM
- IC50 [7]: 5 µM
- EC50 [3]: 0.42 µM
- EC50 ([2]; class symbol): > 30 µM

Compound: iBoc--MLF--S--SPNH [Example 39]
- IC50 [1, 8]: > 30 µM
- EC50 [6]: > 30 µM
- IC50 [7]: 3 to 3.5 µM
- EC50 [3]: 0.6 to 22 µM

Compound: iBoc--MLF--SPNH [Example 37]
- IC50 [1, 8]: > 30 µM
- EC50 [6]: > 30 µM
- IC50 [7]: 10 to 30 µM
- EC50 [3]: 0.15 to 5 µM
